Measurements taken from US11882835B2, “Benzimidazole compound having an optionally halogenated alkylenedioxy group or salt thereof, agricultural and horticultural insecticide comprising the compound or the salt, and method for using the insecticide” (NIHON NOHYAKU CO., LTD., priority 2018, dated 2024).

Columns and labels:
[1] = test system: Plutella xylostella; assay: whole plant or invertebrate; conditions: in Brassica rapa, 144 h, read-out: activity level (corrected mortality rate) of P. xylostella
[2] = test system: Rhipicephalus sanguineus; assay: Assay for transdermal parasiticidal activity against nymphs of Rhipicephalus sanguineus; format: in vivo; conditions: 48 h, read-out: mortality rate, nymphs of R. sanguineus
Excerpt: Assay for Transdermal Parasiticidal Activity Against Nymphs of Rhipicephalus sanguineus
DMSO diluted solutions of various compounds of the present invention were individually diluted to the final concentration of 100 ppm with an acetone/triton solution and applied to the inside of vented sample bottles. After overnight drying, ten nymphs of R. sanguineus were introduced into each bottle, and the mortality rate was examined two days later. Aberrant adults were regarded as the dead.

[3] = test system: Haemonchus contortus; assay: Larval motility assay on Haemonchus contortus; format: in vivo; conditions: 96 h, 4 days, relative to DMSO only, read-out: percent motility inhibition, H. contortus L1 stage larvae
Protocol: Larval motility assay on Haemonchus contortus DMSO diluted solutions of various compounds of the present invention were added at the final concentration of 50 ppm to the wells of a 96-well plate containing a predetermined conditioned medium. Twenty L1 stage larvae of H. contortus were introduced into each well of the 96-well plate. The plate was allowed to stand for 4 days, and then larval motility was examined. The percent motility inhibition in the wells of each treatment was calculated relative to the wells of treatment with DMSO only.

[4] = test system: Laodelphax striatellus; assay: Insecticidal test on Laodelphax striatellus (rice seedling dip); conditions: in Oryza sativa, 192 h, read-out: activity level (corrected mortality rate) of L. striatellus
[5] = test system: Ctenocephalides felis; assay: Assay for oral parasiticidal activity against adults of Ctenocephalides felis; format: in vivo; conditions: read-out: mortality rate, adults of C. felis
Protocol: Assay for Oral Parasiticidal Activity Against Adults of Ctenocephalides felis
Newly-emerged adults of C. felis were placed into test cages (10 adults per test cage). DMSO diluted solutions of various compounds of the present invention were added to aliquots of bovine blood at the final concentration of 50 ppm and orally administered to the adults of C. felis using a feeder. The mortality rate was examined on the following day. Aberrant adults were regarded as the dead.

[6] = test system: Dirofilaria immitis; assay: Larval motility assay on Dirofilaria immitis; format: in vivo; conditions: 72 h, 3 days, relative to DMSO only, read-out: percent motility inhibition, D. immitis L1 stage larvae
Protocol: Larval Motility Assay on Dirofilaria immitis
Five hundred L1 stage larvae of D. immitis were diluted in a predetermined conditioned medium and introduced into each well of a 96-well plate. DMSO diluted solutions of various compounds of the present invention were added at the final concentration of 50 ppm to the wells of the 96-well plate. The plate was allowed to stand for 3 days, and then larval motility was examined. The percent motility inhibition in the wells of each treatment was calculated relative to the wells of treatment with DMSO only.

Compound	mortality at 500 ppm [1] [%]	mortality at 100 ppm [2] [%]	inhibition at 50 ppm [3] [%]	mortality at 500 ppm [4] [%]	mortality at 50 ppm [5] [%]	inhibition at 50 ppm [6] [%]
CCS(=O)(=O)c1cc(C2CC2)cnc1-c1nc2cc3c(cc2n1C)OC(F)(F)O3 [Compound 1-3, 6-(5-cyclopropyl-3-ethylsulfonyl-pyridin-2-yl)-2,2-difluoro-5-methyl-5H-[1,3]dioxolo[4′,5′:4,5]benzo[1,2-d]imidazole]	100	≥ 50	≥ 50	100	≥ 50	≥ 50
CCS(=O)(=O)c1cc(C2CC2)cnc1-c1nc2cc3c(cc2n1C(F)F)OC(F)(F)O3 [Compound 1-9, 6-(5-cyclopropyl-3-ethylsulfonylpyridin-2-yl)-2,2-difluoro-5-difluoromethyl-5H-[1,3]dioxolo[4′,5′:4,5]benzo[1,2-d]imid azole]	100					
CCSc1cc(C2CC2)cnc1-c1nc2cc3c(cc2n1C)OC(F)(F)O3 [Compound 1-1, 6-(5-cyclopropyl-3-ethylthiopyridin-2-yl)-2,2-difluoro-5-me thyl-5H-[1,3]dioxolo[4′,5′:4,5]benzo[1,2-d]imidazole]	100			100		
CCSc1cc(C2CC2)cnc1-c1nc2cc3c(cc2n1C(F)F)OC(F)(F)O3 [Compound 1-7, 6-(5-cyclopropyl-3-ethylthiopyridin-2-yl)-2,2-difluoro-5-di fluoromethyl-5H-[1,3]dioxolo[4′,5′:4,5]benzo[1,2-d]imidazole]	100					
